Publication PMC11784013, “Potassium molybdate blocks APN-dependent coronavirus entry by degrading receptor via PIK3C3-mediated autophagy” (Journal of Virology, 2024)

Tested on: PIK3C3-BECN1-ATG14 complex
Assay: Co-IP and confocal analysis of PtdIns3K complex assembly in ST cells
Type: cell-based, porcine
Settings: 36 h
Experimental: Fig 8 PM promotes PIK3C3-BECN1-ATG14 complex assembly by enhancing PIK3C3 Ser249 phosphorylation. (A) ST cells were transfected with pCMV-Myc-PIK3C3 and pCDNA3.1-Flag-BECN1 for 12 h and then treated with PM (10 mM) for 36 h. The Co-IP was carried out by Flag or Myc Ab, followed by western blot analysis. (B) ST cells were transfected with pCDNA3.1-Flag-BECN 1 and pCDNA3.4-His-ATG14 for 12 h and treated with PM (10 mM) for 36 h. The Co-IP was performed with Flag or […] Ab, followed by western blot detection. (C–E) ST cells were transfected with pCMV-Myc-PIK3C3, pCDNA3.1-Flag-BECN1, and pCDNA3.4-His-ATG14 for 12 h, and PM (10 mM) was added to the cells for 36 h. Then Co-IP was performed with a Myc, Flag, and His Ab individually, and all IPs, input, and phosphorylation of PIK3C3 (Ser249), BECN1 (Ser14), and ATG14 (Ser29) were detected by western blot. (F) ST cells were transfected with pCMV-Myc-PIK3C3, pCDNA3.1-Flag-BECN1, and pCDNA3.4-His-ATG14 for 12 h, and PM (10 mM) was added to the cells for 36 h, which detected by IFA, scale bar: 20 µm. (G) Quantification of PIK3C3-BECN1-ATG14 complex (merged signal) from F using Image J software. (H) ST cells were transfected with pCMV-Myc-PIK3C3 or pCMV-Myc-PIK3C3 mutant, pCDNA3.1-Flag-BECN1 and pCDNA3.4-His-ATG14 for 12 h and then treated with PM (10 mM) for 36 h. Then Co-IP was performed with a Myc, Flag, and His Ab individually, and all IPs, input, and phosphorylation of PIK3C3 (Ser249), BECN1 (Ser14), and ATG14 (Ser29) were detected by western blot. Results are presented as mean ± SD of data from three independent experiments. ***, P ≤ 0.001.
Cotransfected cells were washed with cold PBS twice and lysed with NP40 lysis buffer (Beyotime, China, P0013F) supplemented with 1 mM PMSF (Beyotime, China, ST506) and phosphatase inhibitors (Beyotime, China, P1096). […] Immunoprecipitated proteins were detected by western blotting. […]

[K+].[K+].[O]=[Mo](=[O])([O-])[O-] [PM, potassium molybdate] was tested, and the “PIK3C3 Ser249 phosphorylation” value (ST cells co-transfected with Myc-PIK3C3, Flag-BECN1, His-ATG14, PM 10 mM) was “upregulation of PIK3C3 Ser249 phosphorylation”, the “colocalization of Myc-PIK3C3, Flag-BECN1 and His-ATG14 (confocal microscopy)” value (ST cells, PM 10 mM) was “enhanced the colocalization” and the “interaction between Myc-PIK3C3 and Flag-BECN1 (Co-IP)” value (ST cells, PM 10 mM) was “increased after PM treatment”.
